T1: MMP-2 (Homo sapiens, UniProt P08253)
T1 sequence (P08253 110-660): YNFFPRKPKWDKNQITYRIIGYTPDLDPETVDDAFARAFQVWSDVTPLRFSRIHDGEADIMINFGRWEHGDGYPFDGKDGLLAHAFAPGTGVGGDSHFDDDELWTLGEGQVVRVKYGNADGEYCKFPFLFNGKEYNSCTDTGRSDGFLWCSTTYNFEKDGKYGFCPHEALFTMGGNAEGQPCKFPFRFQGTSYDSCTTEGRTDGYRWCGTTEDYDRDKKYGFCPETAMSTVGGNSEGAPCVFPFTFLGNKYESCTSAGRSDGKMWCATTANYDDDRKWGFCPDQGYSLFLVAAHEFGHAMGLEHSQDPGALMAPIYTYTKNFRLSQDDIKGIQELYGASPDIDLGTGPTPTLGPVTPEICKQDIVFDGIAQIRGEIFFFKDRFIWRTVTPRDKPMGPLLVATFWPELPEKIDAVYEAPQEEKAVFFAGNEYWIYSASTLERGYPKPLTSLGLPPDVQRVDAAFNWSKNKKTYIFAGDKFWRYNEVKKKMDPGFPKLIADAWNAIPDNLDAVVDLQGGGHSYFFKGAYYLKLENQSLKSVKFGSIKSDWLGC

T2: angiogenic peptide SLanc: K-(SL)3(RG)(SL)3-K-G-KLTWQELYQLKYKGI
T2 chain: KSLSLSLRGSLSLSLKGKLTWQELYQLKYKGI


Legend:
HUVEC = experiment: Scratch wound healing assay; assay type: cell-based, human; settings: 1 μM soluble peptide, low FBS (0.5%) media, 18 hr
Method: HUVEC were seeded in a 12-well plate (25,000 per well) and grown to confluence (n=6). A scratch wound was made in each of the wells with a 1 mL pipet tip. Cell surfaces were then washed with HBSS. Cell culture media with 0.5% FBS and 1 μM peptides (SLanc, SLac, PBS) alone was added on top of cells, n=6. Surfaces were imaged immediately. Cells were then incubated at 37° C. for 18 h imaged again in the same location. NIH Image J was used to measure the infiltration distance by migrating HUVEC.

MMP-2 = biological target: T1, MMP-2; experiment: In vitro degradation of SLanc with MMP-2 (MALDI-MS); assay type: biochemical; settings: in vitro incubation with MMP-2, MALDI-MS
Source text: Chemical moieties introduced into the peptide sequence can tailor the host response to materials. In the design of SLanc, an MMP-2 cleavage sequence was introduced into the central peptide backbone. This sequence can be cleaved specifically with MMP-2, which is secreted by a host of infiltrating cells ranging from macrophages to fibroblasts. […] Additional functionality was afforded to SLanc to enhance angiogenesis by addition of QK derived from VEGF-165.

[1] = tested on: human mesenchymal stem cells (hMSCs); experiment: hMSC adhesion on hydrogel scaffolds; assay type: cell-based; settings: 2000 hMSC per gel, 5 days at 37° C., nuclei counted
Method: SLanc, SLac, SL, and RTT hydrogels (50 μL) were cast in 16-well chamber slides (n=6). hMSC (2000 on each gel) were seeded, and compared to TCP surfaces. Cells were incubated for 5 days at 37° C. Actin filaments were stained with Alexafluor Phalloidin 488 (Life Technologies) and DAPI (Life Technologies). Cell morphology was noted and nuclei counted to quantify proliferation.

THP-1 cells = experiment: Immunogenicity with THP-1 cells atop scaffolds (ELISA); assay type: cell-based; settings: ELISA at 24 hr
Method: 200 μL gels were cast in 24 well plates. Rat tail tendon (RTT), Puramatrix™ (Pura) and Matrigel™ were used as gel controls, and TCP with macrophages differentiated to M1 (20 ng/mL IFN-γ+LPS) and M2 (20 ng/mL IL-4) phenotype were used as cell controls. THP-1 cells in suspension were suspended in media and incubated at a concentration of 1M cells/well atop scaffolds. Media aliquots were assayed for inflammatory (IL-1β, TNF-α), and anti-inflammatory (IL-10) at 24 hr using ELISA (Biolegend, Calif.).

Wistar rats = experiment: Subcutaneous implants in rats, histologic and angiogenic evaluation; assay type: in vivo; settings: rat
Method: Female Wisar rats (225-250 g, Charles River Labs, Wilmington, Mass.) were anesthetized using isofluorane (2% for induction and 1% for maintenance), dorsal aspect shaved and sterilely prepped. Hydrogel scaffolds of each SL, SLc, SLac, SLanc or controls: Pura, VEGF (1 μg/mL) were made were loaded in syringes with 22 gage needles. 200 μL subcutaneous injections were injected in 4 different 1.5 inch spaced randomized sites on the dorsal aspect, on either side between the lower thoracic and upper lumber vertebrae. At prescribed timepoints 3 day, 1 week, 2 weeks and […] rats were euthanized using an overdose of isoflurane, CO2 asphyxiation, and bilateral thoracic puncture. The dorsal skin was removed around the entire implant, washed with PBS, and fixed in neutral buffered formalin for 24 hr prior to processing.
Tissue was processed to paraffin blocks, sectioned at 7 μm, deparraffinized and stained for cellular infiltrate using H&E. Cellular infiltrate was determined using immunostaining Mural cell staining associated with angiogenesis was determined by staining for endothelial cells: goat anti-rat CD31+ (Santa Cruz Biotechnology), mouse anti-rat vWF (ABCam); smooth muscle cells: rabbit anti-rat α-SMA+ (Dako); pericytes: mouse anti-rat Nestin+ (Millipore); hematopoitic stem cells: mouse anti-rat CD45 (Santa Cruz Biotechnology), and nucleic DAPI counterstain. Secondary antibodies used were goat anti-rabbit AF 488, donkey anti-goat AF 488, anti-goat AF 488 (Life Technologies), donkey Streptavidin AF 647 (Life Technologies), goat anti-mouse AF 647 and donkey anti-rabbit AF 647. Angiogenesis was quantified by measuring the diameter of vessels (small axis for non-circular vessels), density of vessels (vessels per unit area), presence and thickness of vessel wall (graded from 1 to 3: 1—non-contiguous vessel wall, 2: contiguous thin vessel wall, 3: contiguous multicell thick vessel wall) (n=4 separate sections, n=4 samples).
In modeled diseases such as ligated femoral artery ischemic limb wounds or myocardial infarction several host tissue responses are activated. From secretion of mediators of inflammation such as MCP-1, IL-4, IL-10, SDF-1 and GCSF to growth factors such as VEGF, FGF and EGF extrinsic factors can drastically influence performance of novel materials. As such, prior to use in a disease model, evaluation of scaffolds without concomitant influence from native immune responses was critical. 200 μL subcutaneous implants were randomly made in the dorsal aspect of Wistar rats between the cervical and lumbar vertebrae and 1-2 cm lateral to the midline. 1 w % scaffolds were prepared aseptically by crosslinking 2 w % peptide with an equal volume of HBSS, and injected via 21 gage needle below the skin. At 3 day, 1 week, 2 week and 3 week timepoints, rats were euthanized and scaffolds with surrounding tissue and skin removed. Scaffolds were trimmed, fixed in formalin, embedded in paraffin, sectioned and (immuno-) stained. […] These scaffolds seemed to have completely diffused away or degraded 3 days post-implant. […] Development of blood vessels is dependent on the stimuli the host and scaffold provides. VEGF loaded scaffolds presented 100 ng of recombinant protein (13 nM) within scaffolds. […] These cells of immune, hematopeotic and mesenchymal origin provide a niche for reconstitution of scaffolds. Coupled with recruitment and growth of endothelial feeders from existing vessels, we posit that pericytic cells enhance stability of growing vessels in a paracrine fashion providing adequate support for generation of arterioles.

[2] = biological target: T2, angiogenic peptide SLanc: …

Row | Molecule | migration of HUVEC into scratch wound (HUVEC) | degradation by MMP-2 (MMP-2) | hMSC adhesion to scaffold [1] | IL-1β secretion by THP-1 cells (THP-1 cells) | TNF-α secretion by THP-1 cells (THP-1 cells) | cellular infiltration of scaffold (H&E) (Wistar rats; 200 μL subcutaneous injection, 1 w % scaffold) | fibrous capsule around implant (Wistar rats; subcutaneous implant) | perfusion of neovessels (CD45 / vWF immunostaining) (Wistar rats; subcutaneous implant) | time to development of angiogenic networks (Wistar rats; subcutaneous implant) [days] | time to resorption of vessels and implants (Wistar rats; subcutaneous implant) [weeks] | time to stable vessels (Wistar rats; subcutaneous implant) [days] | vessels in scaffold at 3 day (Wistar rats; subcutaneous implant, 3 day) | vessel maturity by immunostaining at 7 day and 2 weeks (Wistar rats; subcutaneous implant, 7 day and 2 weeks) | hemangiomas or hemorrhaging (Wistar rats; subcutaneous implant, up to 3 weeks) | macro-scale vessels visible upon explant (Wistar rats; subcutaneous implant, compared to SLc or SLc+VEGF scaffolds) | enzymatic cleavage of the peptide, MALDI mass spectrometry of fragments [2]
1 | K-(SL)3-(RG)-(SL)3-K-(GRGDS) (KSLSLSLRGSLSLSLKGRGDS) [SLac, adhesion and cleavage peptide] | significantly higher proliferation than TCP | – | – | – | – | – | – | – | – | – | – | – | – | – | – | –
2 | Ac-KSLSLSLRGSLSLSLKGKLTWQELYQLKYKGI-NH2 [SLanc, K-(SL)3(RG)(SL)3-K-G-KLTWQELYQLKYKGI] | significantly higher proliferation than TCP | yields a variety of peptide fragments around the cleavage site | increased adhesion to SLanc over non-functionalized scaffolds | significantly lower than LPS activated cells, with levels similar to commercially available scaffolds (Puramatrix™ and Matrigel™) | significantly lower than LPS activated cells, with levels similar to commercially available scaffolds (Puramatrix™ and Matrigel™) | significantly greater cellular population | lack of a fibrous capsule | CD45+ hematopoietic cells were noted within vWF+ vessels suggesting patent perfused mature neovessels | ≤ 3 | ≤ 3 | ≤ 7 | small nascent vessels | mature Nestin+, α-SMA+, and CD31+ cells | without development of hemangiomas or hemorrhaging | visible macro-scale vessels | –
3 | MMP-2 (protein) YNFFPRKPKWDKNQITYRIIGYTPDLDPETVDDAFARAFQVWSDVTPLRFSRIHDGEADIMINFGRWEHGDGYPFDGKDGLLAHAFAPGTGVGGDSHFDDDELWTLGEGQVVRVKYGNADGEYCKFPFLFNGKEYNSCTDTGRSDGFLWCSTTYNFEKDGKYGFCPHEALFTMGGNAEGQPCKFPFRFQGTSYDSCTTEGRTDGYRWCGTTEDYDRDKKYGFCPETAMSTVGGNSEGAPCVFPFTFLGNKYESCTSAGRSDGKMWCATTANYDDDRKWGFCPDQGYSLFLVAAHEFGHAMGLEHSQDPGALMAPIYTYTKNFRLSQDDIKGIQELYGASPDIDLGTGPTPTLGPVTPEICKQDIVFDGIAQIRGEIFFFKDRFIWRTVTPRDKPMGPLLVATFWPELPEKIDAVYEAPQEEKAVFFAGNEYWIYSASTLERGYPKPLTSLGLPPDVQRVDAAFNWSKNKKTYIFAGDKFWRYNEVKKKMDPGFPKLIADAWNAIPDNLDAVVDLQGGGHSYFFKGAYYLKLENQSLKSVKFGSIKSDWLGC | – | – | – | – | – | – | – | – | – | – | – | – | – | – | – | In vitro demonstration of physiological degradation of SLanc with the addition of MMP-2, yields a variety of peptide fragments around the cleavage site

Source: patent publication US9526762B1, “Multidomain peptides for promoting angiogenesis” (WILLIAM MARSH RICE UNIVERSITY, priority 2013, dated 2016)
